In ChEMBL document CHEMBL3797145, “Synthesis and evaluation of carbamate and aryl ether substituted pyrazinones as corticotropin releasing factor-1 (CRF₁) receptor antagonists” (Bioorg Med Chem Lett, 2016):

Assays:
[1] = target: T1, Corticotropin-releasing factor receptor 1 (Rattus norvegicus, UniProt P35353); test: Displacement of [125I]Tyr-ovine-CRF from CRF1 receptor in rat frontal cortex homogenate after 2 hrs by gamma counting analysis; format: tissue-based
T1 sequence (P35353 whole entry): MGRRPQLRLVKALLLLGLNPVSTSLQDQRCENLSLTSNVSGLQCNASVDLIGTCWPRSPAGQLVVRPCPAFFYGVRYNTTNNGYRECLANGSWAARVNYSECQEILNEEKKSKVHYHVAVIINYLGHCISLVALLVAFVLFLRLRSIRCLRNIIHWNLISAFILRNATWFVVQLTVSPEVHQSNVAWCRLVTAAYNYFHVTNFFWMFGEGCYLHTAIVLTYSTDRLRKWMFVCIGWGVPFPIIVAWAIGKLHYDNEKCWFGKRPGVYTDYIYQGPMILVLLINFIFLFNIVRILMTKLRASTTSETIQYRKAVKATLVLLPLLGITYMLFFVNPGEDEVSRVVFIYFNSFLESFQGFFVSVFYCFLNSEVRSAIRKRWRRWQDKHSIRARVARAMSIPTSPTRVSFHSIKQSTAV

[2] = Metabolic stability in human liver microsomes assessed as compound remaining after 10 mins; format: ADME; details: read-out: Stability
[3] = Metabolic stability in rat liver microsomes assessed as compound remaining after 10 mins; format: ADME; details: read-out: Stability
[4] = target: T2, Corticotropin-releasing factor receptor 1 (Homo sapiens) (UniProt P34998); test: (§1) Antagonist activity at CRF1 receptor in human Y79 cells assessed as inhibition of CRF-stimulated cAMP production preincubated for 30 mins followed by CRF addition measured after 30 mins by HTRF assay; format: functional, cell-based
T2 sequence (whole entry): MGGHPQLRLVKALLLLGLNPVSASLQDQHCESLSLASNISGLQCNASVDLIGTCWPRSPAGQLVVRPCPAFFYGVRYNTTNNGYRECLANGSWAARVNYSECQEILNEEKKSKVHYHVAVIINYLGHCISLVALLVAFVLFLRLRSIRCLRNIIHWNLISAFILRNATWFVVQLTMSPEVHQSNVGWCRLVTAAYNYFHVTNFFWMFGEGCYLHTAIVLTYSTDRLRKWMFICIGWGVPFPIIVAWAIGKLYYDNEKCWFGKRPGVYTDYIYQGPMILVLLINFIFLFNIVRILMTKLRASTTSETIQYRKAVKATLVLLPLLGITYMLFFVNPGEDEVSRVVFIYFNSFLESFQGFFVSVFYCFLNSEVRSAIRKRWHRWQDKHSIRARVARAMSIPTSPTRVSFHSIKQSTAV

[5] = target: T3, Corticotropin-releasing factor receptor 1 (Homo sapiens, UniProt P34998); test: as §1; format: functional, cell-based
T3 sequence (P34998 whole entry): T2 sequence (whole entry)

## Cc1cc(Nc2nc(Cl)cn([C@H](COC(=O)Nc3cccnc3)C3CC3)c2=O)c(C)nc1OC(F)F
[1]
  IC50: 1.9 nM
[2]
  remaining at 10 min: 71%
[3]
  remaining at 10 min: 52%

## COc1nc(C)c(Nc2nc(Cl)cn([C@H](COC(=O)Nc3cccnc3)C3CC3)c2=O)cc1C
[1]
  IC50: 10 nM
[2]
  remaining at 10 min: 36%
[3]
  remaining at 10 min: 35%

## COc1nc(C)c(Nc2nc(Cl)cn([C@H](COC(=O)c3cccnc3)C3CC3)c2=O)cc1C
[1]
  IC50: 5.2 nM

## COc1nc(C)c(Nc2nc(Cl)cn([C@H](COC(=O)Nc3ccc(Cl)cc3)C3CC3)c2=O)cc1C
[1]
  IC50: 1.6 nM

## COc1nc(C)c(Nc2nc(Cl)cn([C@H](COc3cc(C#N)ccn3)C3CC3)c2=O)cc1C
[1]
  IC50: 6.8 nM

## COc1nc(C)c(Nc2nc(Cl)cn([C@H](COC(=O)Nc3cc(Cl)cc(Cl)c3)C3CC3)c2=O)cc1C
[1]
  IC50: 1.7 nM

## COc1nc(C)c(Nc2nc(Cl)cn([C@H](COC(=O)Nc3ccc(Cl)cc3Cl)C3CC3)c2=O)cc1C
[1]
  IC50: 1.7 nM

## COc1ccc(NC(=O)OC[C@H](C2CC2)n2cc(Cl)nc(Nc3cc(C)c(OC)nc3C)c2=O)c(C)n1
[1]
  IC50: 9.2 nM

## CCNC(=O)OC[C@H](C1CC1)n1cc(Cl)nc(Nc2cc(C)c(OC)nc2C)c1=O
[1]
  IC50: 14 nM

## COc1nc(C)c(Nc2nc(Cl)cn([C@H](COC(=O)c3ccccc3)C3CC3)c2=O)cc1C
[1]
  IC50: 1.5 nM

## COc1nc(C)c(Nc2nc(Cl)cn([C@H](COC(C)=O)C3CC3)c2=O)cc1C
[1]
  IC50: 5.3 nM

## COC[C@H](C1CC1)n1cc(Cl)nc(Nc2cc(C)c(OC(F)F)nc2C)c1=O
[1]
  IC50: 0.29 nM

## COc1nc(C)c(Nc2nc(Cl)cn([C@H](COc3ccc(C(F)(F)F)cn3)C3CC3)c2=O)cc1C
[1]
  IC50: 1.6 nM

## COc1nc(C)c(Nc2nc(Cl)cn([C@H](COc3cccnc3)C3CC3)c2=O)cc1C
[1]
  IC50: 6.7 nM

## COc1nc(C)c(Nc2nc(Cl)cn([C@H](COc3cc(Br)ccn3)C3CC3)c2=O)cc1C
[1]
  IC50: 1.5 nM

## COc1nc(C)c(Nc2nc(Cl)cn([C@H](COC(=O)Nc3ccccc3)C3CC3)c2=O)cc1C
[1]
  IC50: 1.5 nM
[2]
  remaining at 10 min: 32%
[3]
  remaining at 10 min: 33%

## COc1nc(C)c(Nc2nc(Cl)cn([C@H](CO)C3CC3)c2=O)cc1C
[1]
  IC50: 88 nM

## COc1nc(C)c(Nc2nc(Cl)cn([C@H](COC(=O)Nc3ccccc3Cl)C3CC3)c2=O)cc1C
[1]
  IC50: 1.5 nM

## COc1nc(C)c(Nc2nc(Cl)cn([C@H](COc3ccccn3)C3CC3)c2=O)cc1C
[1]
  IC50: 1.2 nM

## COc1nc(C)c(Nc2nc(Cl)cn([C@H](COc3ccc(C#N)cn3)C3CC3)c2=O)cc1C
[1]
  IC50: 7.7 nM

## COc1nc(C)c(Nc2nc(Cl)cn([C@H](COC(=O)c3ccncc3)C3CC3)c2=O)cc1C
[1]
  IC50: 4.9 nM

## Cc1cc(Nc2nc(Cl)cn([C@H](COC(=O)Nc3ccccc3)C3CC3)c2=O)c(C)nc1OC(F)F
[4]
  inhibition: Dose-dependent effect
[5]
  IC50: 1.2 nM
[2]
  remaining at 10 min: 77%
[3]
  remaining at 10 min: 75%

## CCCNC(=O)OC[C@H](C1CC1)n1cc(Cl)nc(Nc2cc(C)c(OC)nc2C)c1=O
[1]
  IC50: 10 nM

## COc1nc(C)c(Nc2nc(Cl)cn([C@H](COC(=O)Nc3cccc(C#N)c3)C3CC3)c2=O)cc1C
[1]
  IC50: 1.3 nM

## COc1nc(C)c(Nc2nc(Cl)cn([C@H](COC(=O)c3ccccn3)C3CC3)c2=O)cc1C
[1]
  IC50: 67 nM
